Measurements: US12042507B2, “Compositions and methods of modulating HIF-2A to improve muscle generation and repair” (University of Georgia Research Foundation, Inc., priority 2017, dated 2024)
“Also recorded” adds a separate entry of the source.

Tests used:
CTX-injured TA muscles = assay: Muscle regeneration after CTX-induced injury, intramuscular HIF-c2; details: for total number of Pax7+ SCs per TA muscle section: vs DMSO
Procedure: To induce Cre activity in mice with the Pax7^cre/ERT2 allele, tamoxifen (20 mg/ml in corn oil) was intraperitoneally administrated for 3 consecutive days (100 mg/Kg/day). To assess myofiber damage, 1% Evan's blue (4 ml/Kg in saline) was intraperitoneally administrated 1 day before the euthanasia. To trace proliferative cells, EdU (50 mg/Kg in DMSO) was intraperitoneally administrated 1 day before the euthanasia. For CTX-induced muscle injury, CTX (0.5 nmol in saline) was injected into TA muscle.
For staining muscle sections, muscle sections were fixed with 2% paraformaldehyde (PFA)/PBS for 10 mins, quenched with 50 mM glycine for 10 mins, permeabilized with 0.5% Triton X-100 for 10 mins. To reduce background fluorescence due to endogenous mouse IgG, Mouse on Mouse (M.O.M.) Blocking Reagent (Vector Lab) was used according to the manufactures' instruction. Muscle sections were blocked in 5% BSA/5% normal goat serum in PBS for 1 hr and incubated with primary antibodies: anti-Pax7 (1:5; DSHB), anti-HIF-2α (1:250; Novus Bio.), anti-HIF-1α (1:250; Novus Bio.), anti-Ki67 (1:1,000; Abcam), anti-Laminin B2 (1:1,000; Milipore), anti-embryonic MyHC (1:50, DSHB), anti-MyHC type I, IIA, or IIB (1:50, DSHB) overnight at 4° C. For EdU staining, Click-iT EdU Fluorescence Kit (Life technologies) was used according to the manufactures' instruction before the application of primary antibodies. Muscle sections were washed in PBS with 0.1% Tween-20, incubated with Alexa Fluor dye-labeled secondary antibodies at room temperature for 1 hr and washed. Sections were mounted with DAPI-containing mounting medium (Life technologies).
Peak isometric torque of the ankle dorsiflexors (tibialis anterior, extensor digitorum longus and extensor hallicus longus muscles) was assessed in vivo as previously described (47). Briefly, mice were anaesthetized with 1.75% isoflurane mixed with oxygen. The left hindlimb was depilated and aseptically prepared before the foot was placed into a foot plate attached to a servomoter (Model 300C-LR; Aurora Scientific, Aurora, Ontario, Canada). Two Pt-Ir electrode needles (Model E2-12; Grass Technologies, West Warwick, RI, USA) were inserted percutaneously on either side of the peroneal nerve. The ankle joint was secured at a 90° angle and body temperature was maintained at 37° C. throughout functional testing. Peak isometric torque was achieved by varying the current delivered to the peroneal nerve at a frequency of 200 Hz and a 0.1-ms square wave pulse. Torques (Nomm) were normalized by the body mass (kg^−1) to account for differences in body size among mice. Following peak isometric torque measurements, the dorsiflexors were subject to 100 electronically stimulated eccentric contractions in order to induce injury. During each contraction the foot was passively moved from the 0° position (perpendicular to tibia) to 20° of dorsiflexion. The dorsiflexors were stimulated at 200 Hz for a 100-ms isometric contraction followed by an additional 50 ms of stimulation while moving from 20° dorsiflexion to 20° plantarflexion at an angular velocity of 800°/s. Eccentric contractions were repeated every 10 seconds and the entire protocol lasted about […].
Muscle sections were stained with Sirius red solution (0.1% in picric acid) for 15 mins, washed with 1% acetic acid for 3 times. Sections were mounted with Cytoseal™ 60 mounting medium (Thermo Fisher Scientific), followed with imaging.
To investigate effects of HIF-2α inhibition on muscle regeneration, HIF-c2 or the carrier solution (1% DMSO) was administered into CTX-injured TA muscles of C57BL/6 mice (daily injections between 1-5 dpi; FIG. 5A). EdU was administrated in the same mice to trace cell proliferation.

C2Cl2 myoblasts = assay: RT-qPCR of HIF-2α and Spry1 mRNA in C2Cl2 myoblasts; assay type: cell-based
Procedure: C2Cl2 myoblasts were transfected with pCMEGIP-HIF2αTM or control empty pCMEGIP plasmids using TransIT-X2 (Mirus Bio.). To differentiate C2Cl2 myoblasts, cells were cultured to reach 80% confluency and further cultured in DMEM (4.5 g/L glucose) medium supplemented with 2% horse serum for 5 days.
For measure relative expression levels, total RNA was isolated from C2Cl2 myoblasts using TRIzol or from FACS sorted satellite cells using PicoPure RNA Isolation Kit (Thermo Fisher Scientific). 1 μg total RNA from C2Cl2 myoblasts (or 0.2 μg total RNA from satellite cells) was used in 20 μl reverse transcription reactions (Maxima; Life technologies) and diluted into 100 μl. 2 μl diluted cDNA was used in 8 μl quantitative PCR reactions (SsoAdvanced™ Universal SYBR Green mix; Bio-Rad) on a BioRad CFX384™ Real-Time PCR Detection System. Cq-values were determined and expression values were calculated by BioRad CFX Manager™ Software. Relative expression values were normalized to inner reference genes Rps18 and Tbp of each biological sample. The following primers were used for quantifying expression levels: […]

[1] = system: CTX-injured tibialis anterior (TA) muscles of hypoxia-exposed mice; assay: Muscle regeneration after CTX injury under eubaric hypoxia; assay type: in vivo, wildtype B6 mice; details: hypoxia 17% pO2, 10 dpi
Procedure: To gain insights on hypoxic effect on muscle regeneration, wildtype B6 mice (12-week old) were treated with eubaric hypoxia (17% pO2, 1 atm) in hypoxia chamber for 4 weeks and injected with CTX (0.5 nmol, 100 μL) into tibialis anterior (TA) muscles at day 18. Mice under normoxia (21% pO2, 1 atm) were injured with CTX as a control.
To assess if HIF-2α inhibition benefits regeneration under experimental hypoxia, HIF-2α inhibitor HIF-C2 (5 mg in 0.1% DMSO) or vehicle (0.1% DMSO) were intramuscularly administered to the injured muscles at days 2, 3 and 4 post-injury (2-4 dpi).

[2] = system: tibialis anterior (TA) muscles of mTR/Mdx mice; assay: Intramuscular HIF-C2 in dystrophic TA muscle of mTR/Mdx mice; assay type: in vivo
Procedure: To reveal the potential therapeutic effects of HIF-2α inhibition on muscular dystrophy, the HIF-2α inhibitor HIF-C2 was intramuscularly injected (5 mg/injection; total 3 doses on day 1, day 4, and day 7) into tibialis anterior (TA) muscles of mTR/Mdx mice (2nd generation; males: n=3 and females: n=3; 16-week old). The contralateral TA muscles received vehicle (0.1% DMSO) injections followed the same injection regime. HIF-C2 and vehicle-treated TA muscles were collected for histological examinations at 28 days after the first treatment.
To investigate whether HIF-C2 improves satellite cell function in mTR/Mdx mice, Pax7 (the definitive marker of satellite cells) and Ki67 (a proliferation marker) immunostaining were carried out on muscle cross-sections and the number of Pax7+pos cells (total number of satellite cells) and Pax7+pos/Ki67+pos cells (proliferative satellite cells) per muscle section were enumerated.
Muscle fibrosis is one of the characteristic pathological changes of Duchenne muscular dystrophy (Klingler et al., Acta Myol 31, 184-195 (2012)). […] Thus, Masson's trichrome staining was performed to reveal the amount of collagen in endomysium.

HIF-2α PAS-B = HIF-2α PAS-B (Homo sapiens, UniProt Q99814); details: binds within the internal cavity of HIF-2α PAS-B; cited from earlier work
Chain of HIF-2α PAS-B (Q99814 240-350 limits assumed): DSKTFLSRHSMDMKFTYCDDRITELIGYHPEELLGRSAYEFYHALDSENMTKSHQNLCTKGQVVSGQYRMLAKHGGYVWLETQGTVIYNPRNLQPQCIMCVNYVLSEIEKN

[3] = target: full-length HIF-2 transcription factor (Homo sapiens, UniProt Q99814); details: cited from earlier work
Chain of full-length HIF-2 transcription factor (Q99814 whole entry): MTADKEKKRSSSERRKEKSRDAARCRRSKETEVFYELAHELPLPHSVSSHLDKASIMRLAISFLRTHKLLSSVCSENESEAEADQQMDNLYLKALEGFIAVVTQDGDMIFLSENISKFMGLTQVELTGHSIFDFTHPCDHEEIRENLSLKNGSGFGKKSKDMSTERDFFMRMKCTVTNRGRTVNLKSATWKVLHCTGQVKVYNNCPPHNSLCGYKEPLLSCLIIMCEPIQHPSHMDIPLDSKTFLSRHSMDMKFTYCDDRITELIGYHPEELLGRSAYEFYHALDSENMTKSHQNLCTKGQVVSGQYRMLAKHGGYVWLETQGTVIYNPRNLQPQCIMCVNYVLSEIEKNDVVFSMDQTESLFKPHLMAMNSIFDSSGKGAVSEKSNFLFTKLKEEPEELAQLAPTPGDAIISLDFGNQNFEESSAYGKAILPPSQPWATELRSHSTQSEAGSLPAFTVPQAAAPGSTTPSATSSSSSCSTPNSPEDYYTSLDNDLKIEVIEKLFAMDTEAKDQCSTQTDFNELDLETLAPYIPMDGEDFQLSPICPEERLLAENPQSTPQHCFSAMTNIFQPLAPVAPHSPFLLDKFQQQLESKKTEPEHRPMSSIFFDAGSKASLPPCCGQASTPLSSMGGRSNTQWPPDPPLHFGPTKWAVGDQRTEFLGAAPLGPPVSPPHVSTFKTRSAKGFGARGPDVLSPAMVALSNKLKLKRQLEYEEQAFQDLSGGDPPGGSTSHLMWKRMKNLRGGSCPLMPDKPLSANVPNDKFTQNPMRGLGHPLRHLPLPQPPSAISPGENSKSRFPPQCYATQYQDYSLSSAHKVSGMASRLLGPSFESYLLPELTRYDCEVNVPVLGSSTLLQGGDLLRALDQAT

HIF-2 = details: living cells; cited from earlier work
HIF-1 = HIF-1 (Homo sapiens, UniProt Q16665); details: selectivity for the HIF-2 isoform; cited from earlier work
Chain of HIF-1 (Q16665 whole entry, canonical isoform): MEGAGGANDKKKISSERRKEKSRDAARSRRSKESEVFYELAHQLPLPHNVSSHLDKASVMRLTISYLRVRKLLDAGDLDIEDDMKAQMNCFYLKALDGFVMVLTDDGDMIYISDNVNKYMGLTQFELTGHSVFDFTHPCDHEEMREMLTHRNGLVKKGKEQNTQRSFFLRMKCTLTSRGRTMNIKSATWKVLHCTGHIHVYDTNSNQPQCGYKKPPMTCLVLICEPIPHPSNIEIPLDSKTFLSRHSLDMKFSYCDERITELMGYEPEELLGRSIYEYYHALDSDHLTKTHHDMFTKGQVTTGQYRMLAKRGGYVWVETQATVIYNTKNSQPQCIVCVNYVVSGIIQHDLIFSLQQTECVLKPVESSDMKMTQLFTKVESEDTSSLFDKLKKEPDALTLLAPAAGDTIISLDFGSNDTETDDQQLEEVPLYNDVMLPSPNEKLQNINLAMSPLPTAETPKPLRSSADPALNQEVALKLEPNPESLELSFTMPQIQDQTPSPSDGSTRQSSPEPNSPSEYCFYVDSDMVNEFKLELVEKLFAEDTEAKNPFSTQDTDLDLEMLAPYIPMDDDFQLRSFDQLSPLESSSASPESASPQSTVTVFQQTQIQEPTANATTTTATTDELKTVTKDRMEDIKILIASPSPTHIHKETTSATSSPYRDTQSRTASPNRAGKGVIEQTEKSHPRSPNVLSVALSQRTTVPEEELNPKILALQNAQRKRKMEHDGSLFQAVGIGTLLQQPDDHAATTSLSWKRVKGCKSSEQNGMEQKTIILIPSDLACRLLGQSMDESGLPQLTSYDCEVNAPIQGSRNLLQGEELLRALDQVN

[4] = system: clear cell renal cell carcinoma (ccRCC); details: patients with ccRCC; cited from earlier work
[5] = system: HIF-2α target genes in tumor cells; details: cited from earlier work
mouse xenograft models = details: cited from earlier work
HIF-2α = details: cited from earlier work
HIF-1a = details: cited from earlier work
[6] = shRNA expression in C2Cl2 myoblasts

O=[N+]([O-])c1c(Nc2cc(F)cc(Cl)c2)ccc2nonc12 [HIF-C2, N-(3-chloro-5-fluorophenyl)-4-nitrobenzo[c][1,2,5]oxadiazol-5-amine]
Pax7+/EdU+ activated SCs per TA muscle section (CTX-injured TA muscles; 3 dpi, vs 1% DMSO carrier): increased
expression of HIF-2α in treated muscle (CTX-injured TA muscles; 7 dpi): reduced
expression of MyoD in treated muscle (CTX-injured TA muscles; 7 dpi): reduced
expression of eMyHC in treated muscle (CTX-injured TA muscles; 7 dpi): reduced
myofiber regeneration (CTX-injured TA muscles; 7 dpi): improved
recovery of the maximal torque measured before injury (CTX-injured TA muscles; 7 dpi, n=6, peroneal nerve stimulation): ~53%
total number of Pax7+ SCs per TA muscle section (CTX-injured TA muscles; 7 dpi): increased
total number of Pax7+ SCs per TA muscle section (CTX-injured TA muscles; 10 dpi): increased
fibrosis (Sirius red staining for collagen) (CTX-injured TA muscles; 30 dpi): no overt sign of fibrosis
myofiber cross sectional areas (CTX-injured TA muscles; 30 dpi): increased
numbers of Pax7+ SCs vs control muscles (CTX-injured TA muscles; 30 dpi): comparable numbers
recovery of the strength (maximal torque) (CTX-injured TA muscles; 30 dpi, n=3): ~90%
HIF-2α expression in muscle (including SCs) (CTX-injured TA muscles; intramuscular, 5 mg/injection/day, 3 consecutive days): reduced HIF-2α expression
HIF-2α mRNA level (C2Cl2 myoblasts; HIF-c2 100 μM, C2Cl2 myoblasts): unchanged
Spry1 mRNA level (C2Cl2 myoblasts; HIF-c2 100 μM, C2Cl2 myoblasts): decreased; also recorded: reduced
muscle regeneration under hypoxia [1]: improved
percentage of Ki67+ proliferating satellite cells [1]: improved satellite cell proliferation under hypoxia to a level better than the normoxic condition
MuSC (Pax7+) number ([1]; 5 mg i.m. at 2-4 dpi, vs vehicle): increased
total number of satellite cells (Pax7+pos) per muscle section ([2]; female mTR/Mdx mice): elevated
number of proliferative satellite cells (Pax7+pos/Ki67+pos) ([2]; female mTR/Mdx mice, 28 days post-treatment, vs control): comparable
number of centralized nuclei in a myofiber ([2]; male mTR/Mdx mice): increased
number of proliferative satellite cells (Pax7+pos/Ki67+pos) ([2]; male mTR/Mdx mice): significantly increased
total number of satellite cells (Pax7+pos) per muscle section ([2]; male mTR/Mdx mice): significantly increased
myofiber cross-sectional area (CSA), ImageJ analysis ([2]; males and females, 28 days after first treatment): increase of myofiber caliber
myofiber size (H&E staining) ([2]; males and females, 28 days after first treatment, 5 mg/injection x3, vs vehicle): larger myofibers
amount of collagen in endomysial space (Masson's trichrome staining) ([2]; vs vehicle-treated control muscles): remarkably reduced
Kd (HIF-2α PAS-B): 81 nM
heterodimerization of the full-length HIF-2 transcription factor [3]: disrupts heterodimerization
HIF-2 DNA binding and transcription of its target genes (HIF-2): disrupting HIF-2 DNA binding and inhibiting the transcription of its target genes
activity to antagonize HIF-1 (HIF-1): no activity to antagonize HIF-1

CS(=O)(=O)c1ccc(Oc2cc(F)cc(C#N)c2)c2c1[C@H](O)C(F)(F)C2 [PT2385]
clinical activity [4]: demonstrated clinical activity

CS(=O)(=O)c1ccc(Oc2cc(F)cc(C#N)c2)c2c1[C@H](O)[C@H](F)[C@@H]2F [PT2977]
expression of HIF-2α target genes [5]: inhibited
tumor regression (mouse xenograft models): induced regression

O=C(CCCCCCC(=O)Nc1ccccc1)NO [Vorinostat]
reversal of epigenetic silencing of HIF-2α (HIF-2α): can reverse the epigenetic silencing of HIF-2α
reversal of epigenetic silencing of HIF-1a (HIF-1a): not HIF-1a

B1: HIF-2α shRNA #1: For HIF-2α knockdown, HIF-2α shRNA oligos ... cloned into pMSCV-P2GM retrovirus plasmids; HIF-2α shRNA #1 oligo (SEQ ID NO: 18) (nucleic acid)
DNA: TGCTGTTGACAGTGAGCGAACACTTGATGTGGAAACGTATTAGTGAAGCCACAGATGTAATACGTTTCCACATCAAGTGTGTGCCTACTGCCTCGGA
HIF-2α mRNA level (C2Cl2 myoblasts; [6]): reduced
Spry1 mRNA level (C2Cl2 myoblasts; [6]): reduced
